This is an account of results in patent US12295930B2, “Inducing proliferation of cardiomyocytes and therapeutic uses related thereto” (Emory University, priority 2018, dated 2025).

Structures are written as SMILES.

The subject of assay [1] is ventricular cardiomyocytes. The experiment in a line: Ventricular cardiomyocyte numbers after T3/metoprolol therapy in adult mice. To be noted: adult 6-month-old mice; metoprolol 6 μg/g daily i.p. 19 days and/or T3 2 ng/g i.p. 5 daily injections; 2 weeks after cessation. Type of assay: in vivo, mouse. The text has this: Digestion efficiencies were ˜98%. Cardiomyocytes in these cell suspensions, identified by their size and by rod shape, were counted using a hemocytometer. […]

The subject of the next assay is adult murine heart. The experiment in a line: Transthoracic echocardiography after T3/β1-adrenergic receptor blocker therapy. Type of assay: in vivo, mouse. Particulars: for Ejection fraction / FW diastole / FW systole / Fractional shortening / IVS diastole / IVS systole / LV end-diastolic dimension / LV end-systolic dimension / LV mass: adult 6-month-old mice, metoprolol 6 μg/g daily i.p. 19 days and/or T3 2 ng/g i.p. 5 daily injections, 2 weeks after cessation. On the procedure: Approximately 6-month-old mice were used. […] On day-14 of this therapy, mice were additionally given 5 daily injections of T3 (2 ng/g, i.p.) or vehicle. At 2 and 4 weeks after the cessation of T3/β1-adrenergic receptor blocker mono- or combination therapy, the body weights of these mice were measured as well as their cardiac dimensions and function using transthoracic echocardiography.
Experiments were performed to determine whether reversal of cell cycle block using β1-blockade coupled with acute T3 treatment may be sufficient to expand the cardiomyocyte endowment of the adult murine heart. […] Two weeks after cessation of these therapies LV dimensions and contractility were analyzed by echocardiography as well as ventricular cardiomyocyte numbers.

In assay [2] the test system is ventricular cardiomyocytes. The assay is described as follows: Ventricular cardiomyocyte count in early post-neonatal mice after T3. The class given is in vivo, mouse. On the procedure:
To determine the effect of T3 on the ventricular cardiomyocyte population in early post-neonatal mice, T3 daily (i. p.), was administered from P7 to P9. At P12, hearts were enzymatically disaggregated and cell suspensions created from the cardiac ventricles. Digestion efficiencies were ˜98%. Cardiomyocytes in these cell suspensions, identified by their size and by rod shape, were counted using a hemocytometer. T3 increased ventricular cardiomyocyte numbers by ˜18% (FIG. 2D), which indicates an average replication rate of 3.6%/day between P7 and P12.

The subject of assay [3] is LV cardiomyocytes. The assay is described as follows: Immunocytochemistry for S phase (EdU) and mitosis (pH3) after in vivo T3. Also noted: species or system mouse. On the procedure: (§1) T3 was administered, intraperitoneally, to each mouse at the dose indicated. Vehicle was administered by the same route and animals thus treated served as controls. Phosphate buffered saline (PBS) was the vehicle for T3, and soybean oil (Sigma, S7381) was the vehicle for 4-hydroxytamoxifen. DUSP5 or β1-adrenergic receptor-specific siRNA or scrambled siRNA (control) was administered using in vivo-jetPEI®, (VWR, 89129-960). […] P7 and older mice were first anesthetized with 5% isoflurane and then hearts were harvested for further processing. Hearts were also collected at 12, 24 and 40 h after T3 or vehicle treatment and ventricular cardiomyocytes were prepared from the apex and base for immunoblotting, RT-qPCR or immunocytochemistry. Hearts were also collected at various ages after birth for immunoblotting, immunocytochemistry, immunohistochemistry and cardiomyocyte number estimation.
Experiments were performed to determine whether T3-stimulated cell cycle entry in LV apical cardiomyocytes ends in mitosis and cell replication.

Assay [4] has as its system IGF-1/IGF-1R, MEK1/2, ERK1/2. The assay is described as follows: T3 proliferative signaling in P8 LV apical and basal cardiomyocytes (immunoblotting). Type of assay: in vivo, mouse. The procedure: as §1
Proliferative signaling by growth factors involves Ras/Raf/mitogen-activated protein kinase (MAPK) kinase (MEK)/extracellular signal-regulated kinase (ERK) signaling. MEK1/2 activate ERK1/2 by phosphorylating T202 and Y204, which is required for ERK1/2 translocation to the nucleus. Sustained ERK1/2 phosphorylation in the nucleus activates multiple transcription factors ultimately resulting in effector protein synthesis and cell proliferation. A single dose of T3 was administered to P8 mice, and cardiomyocytes were isolated from the LV apex or base either immediately after T3 administration (0 h) or after 24 h. […] However, the fraction of nuclear ERK1/2 that remained phosphorylated at 24 h post-T3 treatment was ˜70% lower in LV basal cardiomyocytes (FIG. 4A).

In the next assay the test system is cyclins D1, A2 and B1. The assay is described as follows: Acute in vivo T3 challenge: cyclin expression by immunoblotting. Details: species or system mouse. On the procedure: as §1, with “4-hydroxytamoxifen.” for “4-hydroxytamoxifen. DUSP5 or β1-adrenergic receptor-specific siRNA or scrambled siRNA (control) was administered using in vivo-jetPEI®, (VWR, 89129-960).”
An acute in vivo T3 challenge was used to identify post-neonatal LV cardiomyocytes that retain proliferative capacity. Increases in myocardial cell cycle-promoting cyclins was explored as a surrogate for identifying cardiomyocytes that are able to enter the cell cycle.
(In general: Immunoblotting shows a protein as a band on a membrane.)

Assay [5] has as its system LV cardiomyocytes. To be noted: T3 daily over 3 days (P7-P9); same mouse heart.
Excerpt: To determine if LV apical cardiomyocytes undergo cell replication, multicolor clonal analysis was used in double-transgenic Myh6-MerCreMer::Rosa26fs-Confetti mice to record the proliferative strategies of individual cardiomyocytes of the apex relative to those of the base.
Where [6] appears, read: LV apex cardiomyocytes, post-P8, in vivo T3.
[7] abbreviates: LV basal cardiomyocytes, in vivo T3.

On to `COCCc1ccc(OCC(O)CNC(C)C)cc1` (stereo not drawn) [Metoprolol, metoprolol succinate], for which the “Cardiomyocyte numbers, (millions) [n]” value in assay [1] was 2.44 ± 0.026 millions. In the assay on adult murine heart, the Ejection fraction is given as 55.4 ± 1.8%, the FW diastole stood at 0.92 ± 0.02 mm, the FW systole is 1.20 ± 0.03 mm and the Fractional shortening is on record as 23.4 ± 0.6%. In the assay with adult murine heart, the IVS diastole was 0.96 ± 0.02 mm, the IVS systole stood at 1.29 ± 0.02 mm, the LV end-diastolic dimension amounted to 3.53 ± 0.07 mm and the LV end-systolic dimension turned out to be 2.71 ± 0.06 mm. For the same compound, the LV mass in the assay on adult murine heart is 113 ± 2 mg.

Regarding `N[C@@H](Cc1cc(I)c(Oc2ccc(O)c(I)c2)c(I)c1)C(=O)O` [T3, 3,3′,5-triiodo-L-thyronine], in assay [2] (T3 daily i.p. P7 to P9, counted at P12), the “increase in ventricular cardiomyocyte numbers” value is recorded as roughly 18%. Besides, the average replication rate in assay [2] (between P7 and P12) is on record as 3.6 %/day. Also, in the assay on LV cardiomyocytes [3] (setting [6]), the “number of cardiomyocytes in S phase (EdU+)” value is on record as “increased the number of cardiomyocytes in S phase” and the “number of cardiomyocytes in mitosis (pH3+)” value is “increased”. Besides, in the assay on LV cardiomyocytes [3] (setting [7]), the “S phase in LV basal cardiomyocytes” value is on record as “an increase in S phase was observed” and the “mitosis in LV basal cardiomyocytes” value is listed as “did not enter mitosis”. The “fraction of nuclear ERK1/2 that remained phosphorylated, lower in LV basal cardiomyocytes” value in assay [4] (24 h post-T3 treatment, P8 mice, basal vs apical) was roughly 70%. Further, in assay [4] (P8 mice, single dose T3, 24 h, similarly in apical and basal cardiomyocytes), the “MEK1/2 phosphorylation and nuclear translocation of ERK1/2” value is given as “increased MEK1/2 phosphorylation”. In addition, the “T3-stimulated expression of IGF-1/IGF-1R” value in assay [4] (post-neonatal basal vs apical cardiomyocytes) was “comparable in basal and apical cardiomyocytes”. The “Cardiomyocyte numbers, (millions) [n]” value in assay [1] was 2.33 ± 0.039^NS millions. Besides, the “T3 increase of cyclins D1/A2/B1, more in apical than in basal cardiomyocytes” value in the assay with cyclins D1, A2 and B1 (P8 hearts, LV apical vs basal cardiomyocytes) is recorded as 2-5 fold. Also, in the assay on cyclins D1, A2 and B1 (P8 mice, 40 h after in vivo T3 challenge, LV myocardium), the “expression of cyclins D1, A2 and B1, higher in the LV apex than in the base” value was 2.5-100 fold. The “T3 effect on cyclins in apical or basal cardiomyocytes” value in the assay with cyclins D1, A2 and B1 (P16 cardiomyocytes) is reported as “did not increase cyclins”. Further, in the assay on cyclins D1, A2 and B1 (neonatal hearts), the “T3 effect on cyclins D1/A2/B1 in LV apical and basal cardiomyocytes” value was “increased cyclins D1/A2/B1 similarly in LV apical and basal cardiomyocytes”. Besides, the “T3-stimulated expression of cyclins D1, A2 and B1, lower in basal cardiomyocytes” value in the assay with cyclins D1, A2 and B1 (post-neonatal basal vs apical cardiomyocytes, 40 h after T3) is given as 2-3 fold. Further, in the assay with adult murine heart, the Ejection fraction is 55.7 ± 1.4^NS %, the FW diastole is recorded as 0.87 ± 0.01^NS mm, the FW systole is on record as 1.19 ± 0.03^NS mm and the Fractional shortening is recorded as 24.8 ± 1.4^NS %. In the assay on adult murine heart, the IVS diastole is 0.94 ± 0.01^NS mm, the IVS systole is reported as 1.29 ± 0.02^NS mm, the LV end-diastolic dimension is listed as 3.60 ± 0.03^NS mm and the LV end-systolic dimension was 2.70 ± 0.05^NS mm. Further, in the assay on adult murine heart, the LV mass was 110 ± 2^NS mg. In addition, the “effect on body weight, ventricular cardiomyocyte numbers, LV mass or any measured LV dimension” value in the assay with adult murine heart (vehicle pretreated adult mice) is “did not significantly affect”. In the assay with LV cardiomyocytes [5], the “increase in frequency of monochromatic cardiomyocyte clusters in the LV apex relative to the base” value is reported as roughly 6.5 fold.
